Marks after values point to notes of the source that are not given here.
Columns and labels:
[1] = human; cited from earlier work
[2] = LC/MS quantification of felbamate and metabolites in patient urine; format: in vivo, human; conditions: highest value; patient with total daily dose of 6.0 grams of felbamate
Protocol: Preparation of Patient Urine Samples.
Urine samples were obtained from patient volunteers undergoing felbamate therapy for control of epileptic seizures and under the care of physicians at either the University of Virginia (Charlottesville, Va.) or the EpiCare Center (Memphis, Tenn.). Urine samples were diluted four fold with distilled water (this was done prior to overnight shipment for samples requiring shipping) and placed in an orbital shaking water bath for ˜20 min at 37° C. to insure that all of the analytes were in solution. 500 μL of this diluted sample were removed and added to 100 μL of a mixture of the four deuterated internal standards. […] After mixing, 200 μL were removed and added to 20 μL of 20% H0Ac. […] This fraction was then analyzed by LC/MS without further manipulation.
LC/MS Analysis of Urine Samples for Metabolite Quantification.
LC/MS analysis was performed using a Waters 2690 HPLC equipped with an autosampler and a Waters 486 tunable absorbance detector. […] The post-column flow was directed through a Waters 486 tunable absorbance detector (10 μL flow cell, λ=214 nm) which was used for qualitative assessment of the sample and not for quantitation. […]
Quantification was achieved by integration of the peaks from the mass chromatogram for each analyte using software (Navigator 1.1) provided with the LCQ. […]

[3] = test system: painful peripheral neuropathy; conditions: rat model of painful peripheral neuropathy; cited from earlier work
[4] = test system: MES-induced seizure spread; experiment: Maximal electroshock seizure (MES) test, mice i.p.; format: in vivo; conditions: mice, 30 mg/kg, at both 30 minutes and 4 hours
Text: (§1) The fluoro derivatives synthesized were submitted to the National Institute of Neurological Disorders and Stroke (NINDS) for evaluation in a standard panel of assays. Two convulsant tests (MES and scMET), and a toxicity screen (rotorod in mice, positional sense and gait in rats) were employed for evaluating the compounds activity as neuroprotecting agents. These testing procedures are described in detail in Molecular and Cellular Targets for Anti-epileptic Drugs, eds. G. Avanzini, G. Regesta, P. Tanganelli, M. Avoli, 1997, John Libbey & Company Ltd, pp 191-198. The felbamate derivatives were evaluated for anticonvulsant activity following intraperitoneal (i.p.) administration in mice and oral administration in rats.
(§2) The Maximal Electroshock Seizure (MES)
(§3) The MES test is a model for generalized tonic-clonic seizures and is used to identify compounds which prevent seizure spread. The behavioral and electrographic seizures generated in this model are consistent with the human disorder. In the MES test, an electrical stimulus of 0.2 s in duration (50 mA in mice and 150 mA in rat at 60 Hz) was delivered via corneal electrodes primed with an electrolyte solution containing an anesthetic agent. Mice were tested at 30 minutes and 4 hours following doses of 30, 100 and 300 mg/kg of test compound. Rats were tested at time intervals between 0.25 and 4 hours following a standard oral dose of 30 mg/kg. Abolition of the hindlimb tonic extensor component indicates the test compound's ability to inhibit MES-induced seizure spread.
(§4) For the MES and scMET tests the data is presented in the form of the number of animals protected by the administered compound/total number of animals tested. […] Qualitative data was obtained for fluoro felbamate 12 (Tables 1 and 2A), fluoro monocarbamate felbamate 13 (Tables 1 and 2B), and fluorodioxo 16 (Tables 1 and 2C) and for cyclic felbamate 21 (Tables 5 and 6B) and cyclic monocarbamate 22 (Tables 5 and 6A). More extensive quantitative data was also obtained for fluoro felbamate 12 in mice (Table 3) and rats (Table 4).

[5] = Minimal neurotoxicity (TOX), rotorod test, mice i.p.; format: in vivo; conditions: for TOX, number of animals exhibiting toxic effects/total number tested: mice i.p.
Text: as §1, with “G. Avanzini, G. Regesta, P. Tanganelli, M. Avoli, 1997, John Libbey & Company Ltd, pp 191-198.” left out, “rats. […]” for “rats.”

[6] = test system: MES-induced seizure spread; experiment: Maximal electroshock seizure (MES) test, rats p.o.; format: in vivo
Text: as §1, §2, §3, §4

[7] = Minimal neurotoxicity (TOX), positional sense and gait and stance tests, rats p.o.; format: in vivo; conditions: for TOX, number of animals exhibiting toxic effects/total number tested: rat p.o., 30 mg/kg
Text: as §1, with “G. Avanzini, G. Regesta, P. Tanganelli, M. Avoli, 1997, John Libbey & Company Ltd, pp 191-198.” left out
Rats are examined for behavioral toxicity by the positional sense test and a gait and stance test. […] In the gait and stance test, neurotoxicity is indicated by a circular or zigzag gait, ataxia, abnormal spread of the legs, abnormal posture, tremor hyperactivity, lack of exploratory behavior, somnolence, stupor or catalepsy. […]

[8] = Toxicity, oral administration to mice; format: in vivo; conditions: doses up to 218 mg/kg
Protocol: Toxicity induced by a compound is detected in mice using the standardized rotorod test described by Dunham & Miya (1957). Untreated control mice, when placed on a 6 r.p.m. rotation rod, can maintain their equilibrium for a prolonged period of time.
Toxicity across time doe not occur until dosages of 300 mg/kg. […] Quantitative results obtained for fluoro felbamate 12 in mice indicated a MES ED50 of approximately 20 mg/kg with a safety ratio of at least five (see Table 3). Results obtained for oral administration of fluoro felbamate 12 to rats indicated a MES ED50 of about 3 mg/kg with no toxicity at doses up to 500 mg/kg.

[9] = test system: focal seizures of hippocampal kindled rats; experiment: Hippocampal kindling model (kindled rats), i.p.; format: in vivo, Sprague-Dawley rats; conditions: 100 mg/kg
Text: The Hippocampal Kindling Model
The hippocampal kindling model can be used to evaluate a compound's ability to affect both the expression and acquisition of focal seizures. The hippocampal kindling paradigm as described by Lothman and Williamson (Lothman, 1994) allows the temporal effects of a drug to be evaluated in a single animal. This procedure requires the surgical placement of bipolar electrodes in the ventral hippocampus of adult male Sprague-Dawley rats. Stage five behavioral seizures are produced by using a stimulus consisting of a 50 Hz, 10 s train of 1 ms biphasic 200 uA pulses delivered every 30 min for 6 hours (12 stimuli per day) on alternating days for a total of 60 stimulations (five stimulus days). Prior to evaluating a candidate's anticonvulsant activity, a drug free control period consisting of supramaximal stimulations are recorded to verify the stability of a stage five generalized seizure.
A single dose of the candidate compound is then administered intraperitoneally (i.p.), 15 min following the last control stimulation. The anticonvulsant activity of the drug is assessed every 30 min for three to four hours starting 15 min after administering the test material. After each stimulation, individual Racine seizure scores and afterdischarge durations are recorded. Rats are used again in drug trials after four to five drug- and stimulus-free days.

seizures = experiment: NINDS anticonvulsant panel (MES, scMET), overall statements; format: in vivo
Text: as §1, §4

[10] = Stability of oxazinane-dione at relevant pH; format: physicochemical
Text: It is anticipated, therefore, that the oxazinane-dione 9 is responsible for some aspects of felbamate's efficacy in vivo. As patients undergoing felbamate therapy for seizure control ingest large quantities of felbamate (grams per day), even a 1-2% conversion to a pharmacologically active metabolite could have significant effects. […] In light of the possibility that the oxazinane-dione 9 could be a metabolic precursor to the major human metabolite, acid carbamate 4, it may be formed in significant quantities (the acid carbamate was reported to represent ˜ 12% of a dose). […] Also included in this class are cyclic congeners 21 and 22, which may be formed from felbamate derivatives (see scheme II). Also included is 20, which may be an unknown metabolite of felbamate 1 and could be produced from felbamate derivative 12 by the cytochrome P450 metabolism.

Q: With `NC(=O)CC(C(=O)O)c1ccccc1` (stereo not drawn) [acid carbamate 4, 3-carbamoyl-2-phenylpropionic acid] as the compound, how does the “fraction of a felbamate dose found as acid carbamate” value [1] read?
A: ~12%

Q: With `NC(=O)OCC(COC(N)=O)c1ccccc1` [felbamate, 2-phenyl-1,3-propanediol dicarbamate] as the compound, how does the “amount of felbamate excreted per mL of urine” value [2] read?
A: 10,064±515 nMoles/mL

Q: And the “effect on measures of pain (in words)” value [3]?
A: significant reductions in all measures of pain

Q: For `NC(=O)OCC(F)(COC(N)=O)c1ccccc1` [fluoro felbamate, 2-Fluoro-2-phenyl-1,3-propanediol dicarbamate], which “MES protection (in words)” value [4] is on record?
A: MES protective effects

Q: What about the “TOX, number of animals exhibiting toxic effects/total number tested” value ([5]; 3 mg/kg, 0.5 h) of the same compound?
A: 0/4

Q: What about the “TOX, number of animals exhibiting toxic effects/total number tested” value ([5]; 3 mg/kg, 4.0 h) of the same compound?
A: 0/4

Q: What about the “TOX, number of animals exhibiting toxic effects/total number tested” value ([5]; 10 mg/kg, 0.5 h) of the same compound?
A: 0/4

Q: And the “TOX, number of animals exhibiting toxic effects/total number tested” value ([5]; 10 mg/kg, 4.0 h)?
A: 0/4

Q: What about the “TOX, number of animals exhibiting toxic effects/total number tested” value ([5]; 30 mg/kg, 0.5 h) of the same compound?
A: 1/4

Q: What about the “TOX, number of animals exhibiting toxic effects/total number tested” value ([5]; 30 mg/kg, 4.0 h) of the same compound?
A: 0/2

Q: What about the “TOX, number of animals exhibiting toxic effects/total number tested” value ([5]; 100 mg/kg, 0.5 h) of the same compound?
A: 4/8

Q: What about the “TOX, number of animals exhibiting toxic effects/total number tested” value ([5]; 100 mg/kg, 4.0 h) of the same compound?
A: 0/4

Q: What about the “TOX, number of animals exhibiting toxic effects/total number tested” value ([5]; 300 mg/kg, 0.5 h) of the same compound?
A: 4/4

Q: And the “TOX, number of animals exhibiting toxic effects/total number tested” value ([5]; 300 mg/kg, 4.0 h)?
A: 2/2

Q: What about the safety ratio ([5]; mice, relative to MES ED50) of the same compound?
A: at least five

Q: What about the “MES ED50” value ([6]; rat, p.o.) of the same compound?
A: 3.0 mg/kg

Q: What about the “MES protection (in words)” value ([6]; rats p.o., 30 mg/kg, over several timepoints) of the same compound?
A: full protection

Q: What about the toxicity ([7]; oral administration to rats, doses up to 500 mg/kg) of the same compound?
A: no toxicity

Q: What about the “TOX, number of animals exhibiting toxic effects/total number tested” value ([7]; 0.25 h) of the same compound?
A: 0/4

Q: And the “TOX, number of animals exhibiting toxic effects/total number tested” value ([7]; 0.5 h)?
A: 0/4

Q: What about the “TOX, number of animals exhibiting toxic effects/total number tested” value ([7]; 1.0 h) of the same compound?
A: 0/4

Q: And the “TOX, number of animals exhibiting toxic effects/total number tested” value ([7]; 2.0 h)?
A: 0/4

Q: And the “TOX, number of animals exhibiting toxic effects/total number tested” value ([7]; 4.0 h)?
A: 1/4

Q: What about the toxicity [8] of the same compound?
A: no toxicity

Q: And the “effect on afterdischarge duration (in words)” value [9]?
A: corresponding decrease in afterdischarge duration

Q: And the “effect on seizure score (in words)” value [9]?
A: significant drop in seizure score

Q: What about the “Number Protected / Number Tested” value ([9]; Dose Responses, i.p.) of the same compound?
A: 7/8^a

Q: And the “anti-seizure activity (in words)” value (seizures; overall statement)?
A: show anti-seizure activity

Q: What about the “activity relative to felbamate (times more active)” value (seizures; test not specified) of the same compound?
A: 5-10 times

Q: Which stability [10] does the source give for `O=C1NC(=O)C(c2ccccc2)CO1` (stereo not drawn) [oxazinane-dione 9] here?
A: unstable
